Ends that are not written are not given here.
Columns and labels:
[1] = biological target: T1, DR4 (DRB1*0401) molecules (Homo sapiens, UniProt P01903+P01911, A100K/A169T/F76Y/I96L/K127E/L162R/M171V/N62H/P40V/Q125Y/R42H/S133A/S149N/S66Y/V115G/V209L/W38E); experiment: Peptide HLA-DR binding assay (semi-quantitative competition binding); conditions: for IC50: competition with biotinylated marker peptide HA 309 Y→F, pH5.0, 44 hr RT
T1 construct: molecules were purified from the homozygous EBV-transformed human B lymphoblastoid cell lines Huly138IC2 and BM92 using the mAb; endogenous in cells
Procedure: DR4 (DRB1*0401) and DR4 (DRB1*0404) molecules were purified from the homozygous EBV-transformed human B lymphoblastoid cell lines Huly138IC2 and BM92 using the mAb t243, directed against a monomorphic determinant on the DR-complex (Lampson, L. A and R. Levy (1980), J. Immunol. 125:293 299).
The peptide binding studies were performed using a semi-quantitative competition binding assay (Joosten et al 1994, Int. Immunol. 6, 751). Briefly, purified HLA-DR molecules (30 nM DR4(DRB1*0401) or 15 nM DR4 (DRB1*0404) were incubated at pH5.0 with 50 nM biotinylated marker peptide (HA 309y→F) and a concentration range of competitor peptide in a final volume of 25 μl binding buffer (PBS containing 0.01% […], 0.05% NP-40, 5% DMSO, 1 mM AEBSF, 1 mM N-ethyl maleimide, 8 mM EDTA and 10 μm pepstatin A). After 44 hr of incubation at RT, HLA DR bound marker peptide was separated from free marker peptide using a 96 well vacuum dotblot apparatus (Hybri. dot, BRL) and a nitrocellulose membrane (Hybond ECL, Amersham, UK). The nitrocellulose filters were blocked with 0.5% DNA blocking reagent (Boehringer) in 0.1 M maleic acid, 150 mM NaCl, pH7.5.
After 0.5-1 hr, the filters were washed in PBS, 0.05% Tween 20 (Sigma) and incubated with Strepcavidin-HRPO (Southern Biotechnology) in a 1:10.000 dilution. Biotinylated peptides were detected by enhanced chemiluminescence using a Western Blot ECL kit (Amersham). Exposure of the preflashed films (Hyperfilm-ECL, Amersham) was for 10 min. The spots were analysed by scanning the films and using Image Quant/Excel software for analysis.
The affinity of a given peptide for binding DRB1*0401-encoded molecules was related to competition with the marker peptide. This relative binding affinity was defined as the peptide concentration at which the signal was reduced to 50% (IC50).

[2] = system: PBMC from healthy donors carrying the DR4 (DRB1*0401) specificity; experiment: Peptide-induced proliferative responses of PBMC from healthy donors; format: cell-based, human; conditions: for Peptide-induced proliferative response of PBMC, HD 230: healthy donor 230, 0401, R
Procedure: Peripheral blood samples from 5 healthy donors carrying the DR4(DRB1*0401) specificity were obtained with informed consent and included in this study as a control.
(§1) In order to identify T-cell epitopes within HC gp-39, 59 peptides of 16 AA in length, overlapping by 10 AA were tested for their capacity to induce a proliferative response in PBMC from RA patients and healthy controls carrying the DR4 (DRB1*0401) specificity (Table 1).
(§2) PBMC obtained from heparinized venous peripheral blood were isolated by standard centrifugation on a Ficoll-Paque gradient. Cells were cultured in four-fold at a concentration of 1,5×10^5 cells/well in medium supplemented with 10% heat-inactivated, autologous plasma, L-glutamine, 2-ME and antibiotics in flatbottomed microtiter plates. Cells were incubated in medium alone or in the presence of phytohaemagglutinin (PHA) (2:5 μg/ml) to assert cell viability, or in the presence of 10 or 100 μg/ml of the HC gp-39-derived peptides. In several cases, sets of 2 or 3 sequential peptides were tested due to limited PBMC numbers of individual donors. Cultures were incubated in a total volume of 210 μl for 7 days at […] in a humidified atmosphere of 5% CO2. Cultures were pulsed during the last 18 hours with 0.25 μCi ^3H-thymidine ([^3H]TdR). Cells were harvested on glassfiber filters and [^3H] TdR incorporation was measured by gas scintillation (Packard Matrix 96 βcounter). Only peptides inducing a proliferative response at both 10 and 100 μg/ml were considered to contain a T-cell epitope. Responses were defined positive if stimulation index values (SI, antigen-specific counts per 5 min (cp5 m)/background cp5 m) exceeded or equaled 2.
(§3) T-cell reactivity to HC gp-39-derived peptide as analyzed by measuring the PBMC proliferative response in DR4 (DRB1*0401)-positive RA patients and healthy donors. Proliferative responses were tested in autologous plasma. In Table IIIA and IIIB the results of 7 experiments are presented showing the responses of RA patients (Table IIIA) and the responses of healthy donors (Table IIIB) to 59 overlapping sequences derived from HC gp-39.

[3] = system: PBMC from RA patients carrying the DR4 (DRB1*0401) specificity; experiment: Peptide-induced proliferative responses of PBMC from RA patients; format: cell-based, human; conditions: for Peptide-induced proliferative response of PBMC, RA 272: RA patient 272, 0401, R; for Peptide-induced proliferative response of PBMC, RA 276: RA patient 276, 0401, R; for Peptide-induced proliferative response of PBMC, RA 286: RA patient 286, 0401, R
Procedure: This study included 7 DR4(DRB1*0401)-positive patients diagnosed as suffering from RA according to the ARA criteria (Arnett et al., (1988), Arthritis Rheum. 31, 315). Peripheral blood samples were obtained with informed consent. There were five women and two men aged 46-79 years. Their duration of disease ranged from over 10 to over 30 years. Three out of 7 patients had at least 3 swollen joints. […] All patients were on medication: Four patients were treated with prednisone, three patients received anti-rheumatic agents and 4 patients were treated with NSAID's as well.
as §1, §2, §3

[4] = system: PBMC from RA patients and healthy controls carrying the DR4 (DRB1*0401) specificity; experiment: Proliferative responses of blood mononuclear cells, RA patients and healthy donors taken together; format: cell-based, human; conditions: for Responses to the individual peptides (PBMC proliferation), identifying T-cell epitopes: any donor
Procedure: as §1, §2, §3

[5] = biological target: T2, DR4 (DRB1*0401) molecules purified from the homozygous EBV-transformed human B lymphoblastoid cell line … (human, UniProt P01903 26-254); experiment: competition binding assay on purified DR4(DRB1*0401)
T2 construct: mature; That form is inferred from purification of the native complex

[6] = biological target: T2, DR4 (DRB1*0401) molecules purified from …
[7] = 100 and 10 microgram/ml, 7 days, 3H-thymidine incorporation

Molecule | Relative affinity of binding to DR4 (DRB1*0401), in words [1] | IC50 ([1]; Table IIIA) [nM] | IC50 ([1]; Table IIIB) [nM] | Presence of T-cell epitopes confirmed by PBMC of healthy donor 230 [2] | Peptide-induced proliferative response of PBMC, HD 230 [2, 7] | Peptide-induced proliferative response of PBMC, RA 272 [3, 7] | Response of PBMC from RA patient 272 to individual peptides, in words [3] | Responses to the individual peptides (PBMC proliferation), identifying T-cell epitopes [4] | binding result [5] | IC50 [6] [nM] | further results
LDRFLCTHIIYSFANI [compound 5, LDRFLCTHIIYSFANI] | relatively high affinity | < 1000 | < 1000 | confirmed the presence of T-cell epitopes | pos (positive responses to both 100 and 10 microgram/ml of peptide or sets of peptides (SI>2 were regarded positive)) | pos (positive responses to both 100 and 10 microgram/ml of peptide or sets of peptides (SI≧2 were regarded positive)) | appeared to respond | observed in one or more donors |  |  | Peptide-induced proliferative response of PBMC, RA 259 ([3]; RA patient 259, 0401, R, 100 and 10 microgram/ml, 7 days, 3H-thymidine incorporation): pos (positive responses to both 100 and 10 microgram/ml of peptide or sets of peptides (SI≧2 were regarded positive))
QHLDFISIMTYDFHGA [peptide 30, QHLDFISIMTYDFHGA] | relatively high affinity | < 1000 | < 1000 | confirmed the presence of T-cell epitopes | pos (positive responses to both 100 and 10 microgram/ml of peptide or sets of peptides (SI>2 were regarded positive)) | pos (positive responses to both 100 and 10 microgram/ml of peptide or sets of peptides (SI≧2 were regarded positive)) | appeared to respond | observed in one or more donors |  |  | Peptide-induced proliferative response of PBMC, RA 262 ([3]; RA patient 262, 0401, R, 100 and 10 microgram/ml, 7 days, 3H-thymidine incorporation): pos (positive responses to both 100 and 10 microgram/ml of peptide or sets of peptides (SI≧2 were regarded positive)); Peptide-induced proliferative response of PBMC, RA 276 [3, 7]: pos (positive responses to both 100 and 10 microgram/ml of peptide or sets of peptides (SI≧2 were regarded positive)); Peptide-induced proliferative response of PBMC, RA 286 [3, 7]: pos (positive responses to both 100 and 10 microgram/ml of peptide or sets of peptides (SI≧2 were regarded positive)); Peptides or sets of peptides most frequently recognized ([4]; overall, all donors): most frequently recognized
YKLVCYYTSWSQYREG [peptide 1, YKLVCYYTSWSQYREG] | relatively high affinity | < 1000 | < 1000 | confirmed the presence of T-cell epitopes | pos (positive responses to both 100 and 10 microgram/ml of peptide or sets of peptides (SI>2 were regarded positive)) | pos (positive responses to both 100 and 10 microgram/ml of peptide or sets of peptides (SI≧2 were regarded positive)) | appeared to respond | observed in one or more donors |  |  | 
DYAVGYMLRLGAPASK [compound 37, DYAVGYMLRLGAPASK] | relatively high affinity | < 1000 | < 1000 | confirmed the presence of T-cell epitopes | pos (positive responses to both 100 and 10 microgram/ml of peptide or sets of peptides (SI>2 were regarded positive)) | pos (positive responses to both 100 and 10 microgram/ml of peptide or sets of peptides (SI≧2 were regarded positive)) | appeared to respond | observed in one or more donors |  |  | Peptide-induced proliferative response of PBMC, HD 155 ([2]; healthy donor 155, 0401, R, 100 and 10 microgram/ml, 7 days, 3H-thymidine incorporation): pos (positive responses to both 100 and 10 microgram/ml of peptide or sets of peptides (SI>2 were regarded positive)); Peptide-induced proliferative response of PBMC, HD 235 ([2]; healthy donor 235, 0401, R, 100 and 10 microgram/ml, 7 days, 3H-thymidine incorporation): pos (positive responses to both 100 and 10 microgram/ml of peptide or sets of peptides (SI>2 were regarded positive))
THIIYSFANISNDHID [compound 6, THIIYSFANISNDHID] | relatively high affinity | < 1000 | < 1000 | confirmed the presence of T-cell epitopes | pos (positive responses to both 100 and 10 microgram/ml of peptide or sets of peptides (SI>2 were regarded positive)) | pos (positive responses to both 100 and 10 microgram/ml of peptide or sets of peptides (SI≧2 were regarded positive)) | appeared to respond | observed in one or more donors |  |  | Peptide-induced proliferative response of PBMC, RA 276 [3, 7]: pos (positive responses to both 100 and 10 microgram/ml of peptide or sets of peptides (SI≧2 were regarded positive)); Peptide-induced proliferative response of PBMC, RA 286 [3, 7]: pos (positive responses to both 100 and 10 microgram/ml of peptide or sets of peptides (SI≧2 were regarded positive))
TFIKSVPPFLRTHGFD [HC gp-39 peptide 17 (residues 118-133)] |  |  |  |  |  |  |  |  | binds | 1000 to 10000 | 
QHLDFISIMTYDFHGA [HC gp-39 peptide 30 (residues 196-211)] |  |  |  |  |  |  |  |  | binds | < 1000 | 
DYAVGYMLRLGAPASK [HC gp-39 peptide 37 (residues 238-253)] |  |  |  |  |  |  |  |  | binds | < 1000 | 
YKLVCYYTSWSQYREG [HC gp-39 peptide 1 (residues 22-37)] |  |  |  |  |  |  |  |  | binds | < 1000 | 
YLKDRQLAGAMVWALD [HC gp-39 peptide 54 (residues 340-355)] |  |  |  |  |  |  |  |  | binds | < 1000 | 

Source: patent US6881824B1, “Peptides suitable for use in antigen specific immunosuppressive therapy” (Akzo Nobel N.V., priority 1996, dated 2005)
